Test results reported in ChEMBL document CHEMBL4043190 (Bioorg Med Chem Lett, 2017).
pEC50, pKi: −log10 of the molar value.

Assays:
[1] = Ratio of unbound drug concentration in IL-23/IL-1beta induced C57BL/6J mouse plasma at 30 mg/kg, po to EC50 for TYK2 (unknown origin) assessed as inhibition of IL-23 induced STAT3 phosphorylation
Mus musculus [2] = assay: Antiinflammatory activity in IMQ-induced BALB/c mouse model assessed as reduction in serum IL-17F production at 70 mg/kg, po bid for 5 days; type: functional; set-up: scale not given: the % may be the effect or the level left
Mus musculus [3] = assay: Antiinflammatory activity in IMQ-induced BALB/c mouse psoriasis model assessed as reduction in ear thickness at 100 mg/kg, po bid for 5 days meausred on day 6; type: functional; set-up: scale not given: the % may be the effect or the level left
Mus musculus [4] = assay: Antiinflammatory activity in IMQ-induced BALB/c mouse psoriasis model assessed as reduction in ear thickness at 70 mg/kg, po bid for 5 days meausred on day 6; type: functional; set-up: scale not given: the % may be the effect or the level left
Mus musculus [5] = assay: Anti-inflammatory activity in IL-23/IL-1beta induced C57BL/6J mouse assessed as inhibition of IL-17F level in serum at 70 mg/kg, po pretreated for 30 mins followed by cytokine addition measured after 3 hrs by ELISA relative to control; type: functional
[6] = molecular target: Substance-P receptor (Homo sapiens) (UniProt P25103); assay: Inhibition of NK1 (unknown origin) at 10 uM relative to control
[7] = molecular target: T1, Cyclin-dependent kinase 9 (Homo sapiens, UniProt P50750); settings: 70 nM
[8] = molecular target: T1, Cyclin-dependent kinase 9; assay: Inhibition of CDK9 (unknown origin)
[9] = Clearance in rat; type: ADME; settings: in vivo
[10] = Ratio of unbound drug concentration in IL-23/IL-1beta induced C57BL/6J mouse plasma at 30 mg/kg, po to EC50 for JAK2 (unknown origin) assessed as inhibition of EPO-mediated STAT5 phosphorylation; type: organism-based; settings: in vivo
[11] = molecular target: Non-receptor tyrosine-protein kinase TYK2 (Homo sapiens, UniProt P29597); assay: Inhibition of TYK2 (unknown origin) assessed as reduction in IL-23 induced STAT3 phosphorylation by cell based ELISA
Plasma = assay: Unbound drug concentration in IL-23/IL-1beta induced C57BL/6J mouse plasma at 100 mg/kg, po preincubated for 30 mins followed by cytokine addition measured after 3.5 hrs post dose; type: ADME, organism-based; settings: in vivo
Mus musculus [12] = assay: Anti-inflammatory activity in IL-23/IL-1beta induced C57BL/6J mouse assessed as inhibition of IL-17F level in serum pretreated po for 30 mins followed by cytokine addition measured after 3 hrs by ELISA; type: functional, organism-based
[13] = Efflux ratio of permeability from basolateral to apical over apical to basolateral side in MDCK cells; type: ADME, cell-based, Canis lupus familiaris; settings: dog
Mus musculus [14] = assay: Toxicity in IMQ-induced BALB/c mouse model assessed as reduction in platelet levels at 100 mg/kg, po bid for 5 days; type: organism-based; set-up: scale not given: the % may be the effect or the level left; settings: in vivo, 120 h
[15] = Protein binding in mouse plasma; type: ADME, cell-free; settings: read-out: PPB (converted)

T1 sequence (P50750 whole entry): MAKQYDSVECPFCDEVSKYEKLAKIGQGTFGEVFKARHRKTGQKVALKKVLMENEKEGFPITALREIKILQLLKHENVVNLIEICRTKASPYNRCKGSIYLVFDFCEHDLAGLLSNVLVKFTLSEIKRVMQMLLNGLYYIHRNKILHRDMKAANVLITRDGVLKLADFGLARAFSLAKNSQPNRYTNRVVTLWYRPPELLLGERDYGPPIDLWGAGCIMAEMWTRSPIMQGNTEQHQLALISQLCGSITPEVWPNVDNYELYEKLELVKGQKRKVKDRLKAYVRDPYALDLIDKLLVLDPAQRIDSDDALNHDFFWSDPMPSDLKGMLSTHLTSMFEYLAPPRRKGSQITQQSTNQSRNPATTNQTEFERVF
Substance-P receptor (Homo sapiens), sequence (P25103 whole entry): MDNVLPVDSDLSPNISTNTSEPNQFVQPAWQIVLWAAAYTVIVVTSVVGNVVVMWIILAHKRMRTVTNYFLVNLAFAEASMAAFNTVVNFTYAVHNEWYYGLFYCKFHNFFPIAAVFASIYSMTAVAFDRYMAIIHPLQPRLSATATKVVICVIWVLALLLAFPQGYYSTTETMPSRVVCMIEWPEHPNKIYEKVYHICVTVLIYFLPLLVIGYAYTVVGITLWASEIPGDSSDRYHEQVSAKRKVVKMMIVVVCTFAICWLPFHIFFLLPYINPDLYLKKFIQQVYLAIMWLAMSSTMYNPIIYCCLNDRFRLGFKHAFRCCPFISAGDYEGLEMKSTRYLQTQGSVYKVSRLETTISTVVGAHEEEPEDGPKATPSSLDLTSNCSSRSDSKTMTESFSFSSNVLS
Non-receptor tyrosine-protein kinase TYK2, sequence (P29597 whole entry): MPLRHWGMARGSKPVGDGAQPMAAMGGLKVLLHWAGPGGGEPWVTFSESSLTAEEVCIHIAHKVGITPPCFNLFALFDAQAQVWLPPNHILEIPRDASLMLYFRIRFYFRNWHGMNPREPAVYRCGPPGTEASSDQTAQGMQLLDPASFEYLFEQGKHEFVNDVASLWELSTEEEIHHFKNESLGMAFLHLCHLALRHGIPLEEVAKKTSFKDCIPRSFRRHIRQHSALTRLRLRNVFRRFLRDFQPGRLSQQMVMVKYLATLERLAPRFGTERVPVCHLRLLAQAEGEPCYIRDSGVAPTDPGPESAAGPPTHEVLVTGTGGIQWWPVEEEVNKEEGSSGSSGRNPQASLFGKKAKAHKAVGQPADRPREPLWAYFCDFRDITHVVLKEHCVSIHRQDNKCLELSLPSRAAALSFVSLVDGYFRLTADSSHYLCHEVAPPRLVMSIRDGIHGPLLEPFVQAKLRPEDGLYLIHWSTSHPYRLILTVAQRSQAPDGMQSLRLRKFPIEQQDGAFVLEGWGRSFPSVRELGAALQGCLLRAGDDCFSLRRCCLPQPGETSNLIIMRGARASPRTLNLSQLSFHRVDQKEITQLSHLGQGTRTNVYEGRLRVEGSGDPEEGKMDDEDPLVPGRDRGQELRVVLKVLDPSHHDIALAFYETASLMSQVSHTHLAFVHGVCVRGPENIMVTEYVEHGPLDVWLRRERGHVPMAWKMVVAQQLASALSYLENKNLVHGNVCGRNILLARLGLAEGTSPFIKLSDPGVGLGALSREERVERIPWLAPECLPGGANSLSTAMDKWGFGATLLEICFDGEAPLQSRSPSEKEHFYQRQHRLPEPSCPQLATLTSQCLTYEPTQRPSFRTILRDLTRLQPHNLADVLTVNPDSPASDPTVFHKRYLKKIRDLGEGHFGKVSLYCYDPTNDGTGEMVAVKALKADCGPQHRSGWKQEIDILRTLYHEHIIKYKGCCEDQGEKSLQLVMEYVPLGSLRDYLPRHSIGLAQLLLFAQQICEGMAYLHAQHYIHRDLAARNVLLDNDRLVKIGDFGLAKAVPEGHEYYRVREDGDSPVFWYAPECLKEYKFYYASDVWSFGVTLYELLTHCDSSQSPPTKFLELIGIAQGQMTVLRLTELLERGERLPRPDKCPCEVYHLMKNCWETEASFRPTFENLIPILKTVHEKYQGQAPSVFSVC

inhibition [6]: 67%
inhibition [7]: > 50%
pKi [8]: 6.97
clearance [9]: 5.1 mL/min/kg
Ratio [10]: 0.61
pEC50 [11]: 7.18
Cp(f) (Plasma): 2600 nM
efflux ratio [13]: 1.1
fraction unbound [15]: 0.034
Structure (SMILES): Cc1cc(Nc2nccc3nc(-c4c(Cl)cc(C#N)cc4Cl)[nH]c23)ncn1
Ratio [1]: 13
Activity (Mus musculus [2]): 100%
Activity (Mus musculus [3]): 82%
Activity (Mus musculus [4]): 78%
inhibition in vivo at 70 mg/kg (Mus musculus [5]): 72%
inhibition (Mus musculus [12]): Dose-dependent effect
Activity (Mus musculus [14]): 54%
